Assay results taken from US20180153995A1, “USE OF ANTIMICROBIAL POLYMERS FOR RE-SENSITIZATION OF MICROORGANISMS UPON EMERGENCE OF RESISTANCE TO ANTI-MICROBIAL AGENTS” (Technion Research & Development Foundation Limited, priority 2008, published 2018).
Several values for one entry are separate records, joined by “and”; a condition that tells them apart may be missing. Equal entries are not always repeated. Where two headings read alike, the source gives them in different places.

Tests used:
S. aureus 17314 = assay: Antibiotic MIC by microdilution with or without sub-MIC polymer; assay type: cell-based, Staphylococcus aureus
S. aureus 15819 = assay: as above; assay type: cell-based, Staphylococcus aureus; conditions: S. aureus 15819
S. aureus 43300 [1] = assay: as above; assay type: cell-based, Staphylococcus aureus
E. coli 16327 = assay: microbe, parasite or virus in culture
E. coli 14182 = assay: Antibiotic MIC by microdilution with or without sub-MIC polymer; assay type: cell-based, Escherichia coli
MRSA 15903 = assay: microbe, parasite or virus in culture; assay type: cell-based, Staphylococcus aureus
Outline: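 Values are FIC indexes, summing each agent's MIC in combination divided by its MIC alone, for MRSA 15903. Interpretation: <0.5 clear re-sensitization, 0.5 to 4 marginal or none, >4 antagonistic.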

[2] = tested on: E. coli K-12 efflux knockout mutant; assay type: cell-based, Escherichia coli; conditions: E. coli AG100A (efflux−)
Outline: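 Broth microdilution, inocula 10^5 bacteria/ml, 24 h at 37 °C. Growth read as OD620 against calibration standards.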

S. aureus 43300 [3] = assay: Antibiotic MIC by microdilution with or without sub-MIC polymer; assay type: cell-based, Staphylococcus aureus; remark: listed apart in the source
S. maltophila 748 = assay: as above; assay type: cell-based, Stenotrophomonas maltophila
[4] = +¼ MIC (1.6 μM) C12(5-ene)KKNC12KNH2
[5] = +½ MIC (3.12 μM) C12(5-ene)KKNC12KNH2
[6] = +½ MIC (3.12 μM) C12K(KNC12K)3NH2
[7] = +⅓ MIC (2.1 μM) C12(5-ene)KKNC12KNH2
[8] = +⅓ MIC (2.1 μM) C12K(KNC12K)3NH2

CCN1CCN(C(=O)N[C@@H](C(=O)N[C@@H]2C(=O)N3[C@@H]2SC(C)(C)[C@@H]3C(=O)O)c2ccccc2)C(=O)C1=O [Piperacillin, piperacillin]
Antibiotic MIC (S. aureus 17314): 128 µg/mL
Antibiotic MIC (S. aureus 17314; S. aureus 17314, +¼ MIC (1.6 μM) C12K(KNC12K)2NH2): 128 µg/mL
Antibiotic MIC (S. aureus 17314; S. aureus 17314, +¼ MIC (1.6 μM) C14(9-ene)KKNC12KNH2): 32 µg/mL
Antibiotic MIC (S. aureus 17314; S. aureus 17314, +¼ MIC (1.6 μM) C16(9-ene)KKNC12KNH2): 4 µg/mL
Antibiotic MIC (S. aureus 17314; S. aureus 17314, +½ MIC (3.12 μM) C12K(KNC12K)2NH2): 64 µg/mL
Antibiotic MIC (S. aureus 17314; S. aureus 17314, +½ MIC (3.12 μM) C12KKNC12KNH2): 64 µg/mL
Antibiotic MIC (S. aureus 17314; S. aureus 17314, +½ MIC (3.12 μM) C14(9-ene)KKNC12KNH2): 32 µg/mL
Antibiotic MIC (S. aureus 17314; S. aureus 17314, +½ MIC (3.12 μM) C16(9-ene)KKNC12KNH2): 1 µg/mL
Antibiotic MIC (S. aureus 17314; S. aureus 17314, +⅓ MIC (2.1 μM) C12K(KNC12K)2NH2): 128 µg/mL
Antibiotic MIC (S. aureus 17314; S. aureus 17314, +⅓ MIC (2.1 μM) C14(9-ene)KKNC12KNH2): 32 µg/mL
Antibiotic MIC (S. aureus 17314; S. aureus 17314, +⅓ MIC (2.1 μM) C16(9-ene)KKNC12KNH2): 2 µg/mL
Antibiotic MIC (S. aureus 17314; S. aureus 17314, no polymer (None), Table 9): 32 µg/mL
Antibiotic MIC (S. aureus 17314; S. aureus 17314, no polymer (None), Table 10): 8 µg/mL
Antibiotic MIC (S. aureus 17314; S. aureus 17314, no polymer (None), Table 11): 128 µg/mL
Antibiotic MIC (S. aureus 17314; S. aureus 17314, no polymer (None), Table 12): 128 µg/mL
Antibiotic MIC (S. aureus 15819; [4]): 8 to 16 µg/mL
Antibiotic MIC (S. aureus 15819; +¼ MIC (1.6 μM) C12KKNC12KNH2): 16 µg/mL
Antibiotic MIC (S. aureus 15819; [5]): 4 µg/mL
Antibiotic MIC (S. aureus 15819; [6]): 4 µg/mL
Antibiotic MIC (S. aureus 15819; +½ MIC (3.12 μM) C12KKNC12KNH2): 4 µg/mL
Antibiotic MIC (S. aureus 15819; [7]): 8 µg/mL
Antibiotic MIC (S. aureus 15819; [8]): 4 µg/mL
Antibiotic MIC (S. aureus 15819; +⅓ MIC (2.1 μM) C12KKNC12KNH2): 8 to 16 µg/mL
Antibiotic MIC (S. aureus 15819; no polymer (None), Table 8): 16 µg/mL
Antibiotic MIC (S. aureus 15819; no polymer (None), Table 11): 32 µg/mL
Antibiotic MIC (S. aureus 15819; no polymer (None), Table 13): 32 µg/mL
Antibiotic MIC (S. aureus 43300 [1]; [4]): 4 µg/mL
Antibiotic MIC (S. aureus 43300 [1]; +¼ MIC (1.6 μM) C12K(KNC12K)2NH2): 32 µg/mL
Antibiotic MIC (S. aureus 43300 [1]; +¼ MIC (1.6 μM) C12KKNC12KNH2): 32 µg/mL
Antibiotic MIC (S. aureus 43300 [1]; +¼ MIC (1.6 μM) C16(9-ene)KKNC12KNH2): 4 µg/mL
Antibiotic MIC (S. aureus 43300 [1]; +½ MIC (3.12 μM) C12KKNC12KNH2): 8 µg/mL
Antibiotic MIC (S. aureus 43300 [1]; +½ MIC (3.12 μM) C16(9-ene)KKNC12KNH2): 2 µg/mL
Antibiotic MIC (S. aureus 43300 [1]; [7]): 4 µg/mL
Antibiotic MIC (S. aureus 43300 [1]; +⅓ MIC (2.1 μM) C12K(KNC12K)2NH2): 32 µg/mL
Antibiotic MIC (S. aureus 43300 [1]; +⅓ MIC (2.1 μM) C12KKNC12KNH2): 16 µg/mL
Antibiotic MIC (S. aureus 43300 [1]; +⅓ MIC (2.1 μM) C16(9-ene)KKNC12KNH2): 4 µg/mL
Antibiotic MIC (E. coli 16327): 128 µg/mL and 256 µg/mL
Antibiotic MIC (E. coli 16327; E. coli 16327, +¼ MIC (1.6 μM) C12K(KNC12K)2NH2): 256 µg/mL
Antibiotic MIC (E. coli 16327; E. coli 16327, +½ MIC (3.12 μM) C12K(KNC12K)2NH2): 64 µg/mL
Antibiotic MIC (E. coli 16327; E. coli 16327, +⅓ MIC (2.1 μM) C12K(KNC12K)2NH2): 256 µg/mL
Antibiotic MIC (E. coli 16327; E. coli 16327, no polymer (None), Table 9): 256 µg/mL
Antibiotic MIC (E. coli 16327; E. coli 16327, no polymer (None), Table 10): 512 µg/mL
Antibiotic MIC (E. coli 16327; E. coli 16327, no polymer (None), Table 12): 256 µg/mL
Antibiotic MIC, None (E. coli 16327; E. coli U-16327, antibiotic alone (Table 15)): 256 µg/mL
Antibiotic MIC in presence of C12K(NC8K)7NH2 (SEQ ID NO: 4), +¼ MIC (E. coli 16327; E. coli U-16327, polymer at ¼ of its MIC): 256 µg/mL
Antibiotic MIC in presence of C12K(NC8K)7NH2 (SEQ ID NO: 4), +½ MIC (E. coli 16327; E. coli U-16327, polymer at ½ of its MIC): 32 to 64 µg/mL
Antibiotic MIC in presence of C12K(NC8K)7NH2 (SEQ ID NO: 4), +⅓ MIC (E. coli 16327; E. coli U-16327, polymer at ⅓ of its MIC): 128 to 256 µg/mL
Antibiotic MIC (E. coli 14182; +¼ MIC C12K(NC8K)5NH2): >512 µg/mL
Antibiotic MIC (E. coli 14182; +½ MIC C12K(NC8K)5NH2): 512 µg/mL
Antibiotic MIC (E. coli 14182; +⅓ MIC C12K(NC8K)5NH2): >512 µg/mL
Antibiotic MIC, None (E. coli 14182; antibiotic alone (Table 15)): >512 µg/mL
Antibiotic MIC (E. coli 14182; no polymer (None), Table 14): >512 µg/mL
Antibiotic MIC in presence of C12K(NC8K)7NH2 (SEQ ID NO: 4), +¼ MIC (E. coli 14182; polymer at ¼ of its MIC): >512 µg/mL
Antibiotic MIC in presence of C12K(NC8K)7NH2 (SEQ ID NO: 4), +½ MIC (E. coli 14182; polymer at ½ of its MIC): 64 µg/mL
Antibiotic MIC in presence of C12K(NC8K)7NH2 (SEQ ID NO: 4), +⅓ MIC (E. coli 14182; polymer at ⅓ of its MIC): >512 µg/mL
MIC (MRSA 15903; MRSA 15903, +¼ polymer MIC (1.6 μM) NC12(KNC12K)2NH2): 64 µg/mL
MIC (MRSA 15903; MRSA 15903, +½ polymer MIC (3.1 μM) NC12(KNC12K)2NH2): 1 µg/mL
MIC (MRSA 15903; MRSA 15903, +⅓ polymer MIC (2.1 μM) NC12(KNC12K)2NH2): 4 µg/mL
MIC (MRSA 15903; S. aureus CI-15903, +polymer (¼ MIC) C12(5-ene)KKNC12KNH2): 32 µg/mL
MIC (MRSA 15903; S. aureus CI-15903, +polymer (½ MIC) C12(5-ene)KKNC12KNH2): 0.25 µg/mL
MIC (MRSA 15903; S. aureus CI-15903, +polymer (⅓ MIC) C12(5-ene)KKNC12KNH2): 4 µg/mL
MIC (MRSA 15903; S. aureus CI-15903, alone): 256 µg/mL
MIC (MRSA 15903; Staphylococcus aureus, MRSA, 24 h): 256 µg/mL
Antibiotic MIC, None ([2]; antibiotic alone (Table 16)): <0.13 µg/mL
Antibiotic MIC, None ([2]; antibiotic alone (Table 17)): <0.13 µg/mL
Antibiotic MIC in presence of C12K(NC8K)7NH2 (SEQ ID NO: 4), +¼ MIC ([2]; polymer at ¼ of its MIC (Table 16)): <0.13 µg/mL
Antibiotic MIC in presence of C12K(NC8K)7NH2 (SEQ ID NO: 4), +½ MIC ([2]; polymer at ½ of its MIC (Table 16)): <0.13 µg/mL
Antibiotic MIC in presence of C12K(NC8K)7NH2 (SEQ ID NO: 4), +⅓ MIC ([2]; polymer at ⅓ of its MIC (Table 16)): <0.13 µg/mL
Antibiotic MIC in presence of the OAK, +¼ MIC ([2]; the OAK at ¼ of its MIC (Table 17)): <0.13 µg/mL
Antibiotic MIC in presence of the OAK, +½ MIC ([2]; the OAK at ½ of its MIC (Table 17)): <0.13 µg/mL
Antibiotic MIC in presence of the OAK, +⅓ MIC ([2]; the OAK at ⅓ of its MIC (Table 17)): <0.13 µg/mL
Antibiotic MIC (S. aureus 43300 [3]; +¼ MIC (1.6 μM) C14(9-ene)KKNC12KNH2): 16 µg/mL
Antibiotic MIC (S. aureus 43300 [3]; [5]): 1 µg/mL
Antibiotic MIC (S. aureus 43300 [3]; +½ MIC (3.12 μM) C14(9-ene)KKNC12KNH2): 16 µg/mL
Antibiotic MIC (S. aureus 43300 [3]; +⅓ MIC (2.1 μM) C14(9-ene)KKNC12KNH2): 16 µg/mL
Antibiotic MIC (S. aureus 43300 [3]; no polymer (None), Table 8): 16 µg/mL
Antibiotic MIC (S. aureus 43300 [3]; no polymer (None), Table 9): 16 µg/mL
Antibiotic MIC (S. aureus 43300 [3]; no polymer (None), Table 10): 16 µg/mL
Antibiotic MIC (S. aureus 43300 [3]; no polymer (None), Table 11): 32 µg/mL
Antibiotic MIC (S. aureus 43300 [3]; no polymer (None), Table 12): 32 µg/mL
Antibiotic MIC (S. maltophila 748; +¼ MIC (1.6 μM) C12K(KNC12K)3NH2): 32 µg/mL
Antibiotic MIC (S. maltophila 748; [6]): 32 µg/mL
Antibiotic MIC (S. maltophila 748; [8]): 32 µg/mL
Antibiotic MIC (S. maltophila 748; no polymer (None), Table 13): 32 µg/mL
